Measured values reported in patent publication US20060211751A1, “Zolmitriptan crystal forms” (priority 2004, published 2006).

Key:
Assay type in all cases: physicochemical
[1] = Transformation by pressing (crystal form before and after pressing); settings: for Crystal Form after pressing: 100 mg pressed with approximately 1300 psi during 2 minutes
[2] = Transformation of zolmitriptan crystal forms by heating in a conventional oven, form determined by XRD; settings: for Crystal form after heating: about 1.5 to 2 hours, conventional oven, XRD
Method: Zolmitriptan (0.5 g) crystalline forms were heated in a conventional oven for a period of about 1.5 to 2 hours at different temperatures. The crystal form of the samples was determined by XRD before and after heating.

[3] = Polymorphic stability when maintained at room temperature
[4] = Transformation by slurry in other solvents (n-hexane, toluene, water) and drying, form determined by XRD
Description: Similarly to example 6 Zolmitriptan samples were slurried from other solvents or solvent systems after dissolution and precipitation from a specific solvent.

[5] = Toluene, dried 63 °C under reduced pressure
[6] = Water, dried 63 °C under reduced pressure
[7] = immersed in 10 v/w Toluene, filtered, sucked ½ hour on Buchner
[8] = immersed in 10 v/w Water, filtered, sucked ½ hour on Buchner
[9] = immersed in 10 v/w n-Hexane, filtered, sucked ½ hour on Buchner
[10] = n-Hexane, dried 63 °C under reduced pressure

Compound	Crystal Form after pressing [1]	transformation to other crystal form on pressing [1]	stability upon heating (conversion to Form A) ([2]; heated at about 60 °C to about 110 °C for about 2 hours)	Crystal form after heating ([2]; heating temp. 60 °C)	Crystal form after heating ([2]; heating temp. 100 °C)	Crystal form after heating ([2]; heating temp. 110 °C)	polymorphic stability (conversion to Form A) [3]	XRD sample (form after treatment) [4, 5]	XRD sample (form after treatment) [4, 6]	XRD sample (form after treatment) [4, 7]	XRD sample (form after treatment) [4, 8]	XRD sample (form after treatment) [4, 9]	XRD sample (form after treatment) [4, 10]	Crystal form after heating ([2]; heating temp. 90 °C)
CN(C)CCc1c[nH]c2ccc(C[C@H]3COC(=O)N3)cc12 [Amorphous form]	Amorphous Form	not transform to other crystal form	does not convert to Form A	Amorph	Amorph	Amorph								
CN(C)CCc1c[nH]c2ccc(C[C@H]3COC(=O)N3)cc12 [Form G]	Form G	not transform to other crystal form					do not convert to Form A	Form A + ˜10% K	Form A	Form K	Form A	Form D	Essent.Am D	
CN(C)CCc1c[nH]c2ccc(C[C@H]3COC(=O)N3)cc12 [Form I]	Form I	not transform to other crystal form					do not convert to Form A	Form A	Form A	Form K	Form A	Form D	Form A	
CN(C)CCc1c[nH]c2ccc(C[C@H]3COC(=O)N3)cc12 [Form K]	Form K	not transform to other crystal form					do not convert to Form A	Form A	Form A	Form K	Form A + ˜10% K	Form D	Form A	
CN(C)CCc1c[nH]c2ccc(C[C@H]3COC(=O)N3)cc12 [Form L]	Form L	not transform to other crystal form												A +
CN(C)CCc1c[nH]c2ccc(C[C@H]3COC(=O)N3)cc12 [Form N]	Form N	not transform to other crystal form		N + A				Form A	Form A	Form K	Form A	Form D	Form A	
CN(C)CCc1c[nH]c2ccc(C[C@H]3COC(=O)N3)cc12 [Form Q]				A +										
CN(C)CCc1c[nH]c2ccc(C[C@H]3COC(=O)N3)cc12 [Form S]	Form S	not transform to other crystal form					do not convert to Form A	Form A + ˜10% K	Form A	Form K	Form A + ˜10% D	Form D	Form A + ˜20% D	
